Measured values as given in patent publication US8846951B2 (AbbVie Inc., priority 2009, dated 2014).
Like-named read-outs stand apart in the source and are kept apart here.

What was measured:
[1] = target: T1, 5HT2C receptors (Homo sapiens, UniProt P28335); experiment: Human 5-HT2C functional assay in 1321N1 cells (intracellular calcium, FLIPR); type: cell-based; set-up: expressed in transfected cells; host or cells: 1321N1 cells; details: 5-HT2c agonist activity, maximum calcium response
T1 sequence (P28335 33-458): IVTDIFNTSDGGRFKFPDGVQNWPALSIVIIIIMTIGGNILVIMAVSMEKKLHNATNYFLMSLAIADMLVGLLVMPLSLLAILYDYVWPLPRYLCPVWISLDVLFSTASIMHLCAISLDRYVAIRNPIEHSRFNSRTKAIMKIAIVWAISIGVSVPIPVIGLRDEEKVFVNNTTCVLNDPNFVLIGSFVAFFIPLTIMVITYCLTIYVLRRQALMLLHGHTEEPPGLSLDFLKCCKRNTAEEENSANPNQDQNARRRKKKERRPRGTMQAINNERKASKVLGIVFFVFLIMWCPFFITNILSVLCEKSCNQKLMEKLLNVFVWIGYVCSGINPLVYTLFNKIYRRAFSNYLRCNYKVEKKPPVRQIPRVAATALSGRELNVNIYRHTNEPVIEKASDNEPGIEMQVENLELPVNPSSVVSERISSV
Procedure, shortened: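 Intracellular calcium (Fluo-4, FLIPR peak response) was measured in stably transfected human 5-HT2C 1321N1 cells after overnight serum-free culture. Compounds were applied at final 10^−10 to 10^−5 M either alone or together with 10^−9 M serotonin. Half-maximal effect concentration was derived by four-parameter logistic fitting.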

[2] = target: T2, h-5-HT6 receptor (Homo sapiens, UniProt P50406); experiment: Human 5-HT6 receptor radioligand binding assay (HEK293 membranes, [3H]-LSD)
T2 construct: expressed in transfected cells; host or cells: HEK293 cells (membranes)
Experimental: (v) Human 5-HT6 Receptor Radioligand Binding Assay
Preparation of Membranes by Ultrasonic Treatment and Differential Centrifugation
Cells from stable clonal cell lines expressing the corresponding receptor (5-HT6) were washed with PBS (without Ca^++, Mg^++) and harvested in PBS with 0.02% EDTA. The cells were collected by centrifugation at 500 g for 10 minutes at 4° C., washed with PBS and centrifuged (500 g, 10 minutes at 4° C.). The pellets were stored at −80° C. until use. For membrane preparation, the thawed cell pellet was resuspended in ice-cold sucrose buffer (0.25 M sucrose, 10 mM HEPES (pH 7.4), 1 mM phenylmethylsulfonyl fluoride (PMSF) in DMSO, 5 μg/ml Pepstatin-A, 3 mM EDTA, 0.025% Bacitracin) and homogenized with a Branson Sonifier W-250 (Settings: Timer 4; Output Control 3; Duty Cycle constant; 2 to 3 cycles). Cell disruption was checked with the aid of a microscope. Remaining unbroken cells were pelleted at 1,000 g for 10 minutes at 4° C. The sucrose buffer supernatant was then centrifuged at 60,000 g for 1 hour at 4° C. (Beckman Ultracentrifuge XL 80). The pellet was resuspended in 30 mL of ice-cold Tris buffer (20 mM TRIS (pH 7.4), 5 μg/mL Pepstatin A, 0.1 mM PMSF, 3 mM EDTA) by pipetting through a 10 mL serological pipette and centrifuged for 1 hour at 4° C. at 60,000 g. A final resuspension was performed in a small volume of ice-cold Tris buffer (see above) by pressing through a serological pipette followed by ultrasonic treatment with a Branson Sonifier W-250 (Settings: Timer 1; Output Control 3; Duty Cycle constant; 1 cycle). Protein concentration was determined (BCA-Kit; Pierce) and aliquots stored at −80° C. or in liquid nitrogen for long-term storage.
Receptor Binding Experiments
All receptor binding experiments were carried out in the corresponding assay buffer in a total volume of 200 μL in the presence of various concentrations of test compound (10^−5 M to 10^−9 M, tenfold serial dilution, duplicate determinations). The assays were terminated by filtration on polyethylenimine (PEI 0.1% or 0.3%) presoaked Packard Unifilter Plates (GF/C or GF/B) with a Tomtec MachIII U 96 well-plate harvester. After the plates had been dried for 2 hours at 55° C. in a drying chamber scintillation cocktail (BetaPlate Scint; PerkinElmer) was added. Radioactivity was measured in a Microbeta Trilux two hours after the addition of the scintillation mixture.
5-HT6 Receptor Binding Assay
HEK293 cells stably expressing the h-5-HT6 receptor (NCBI Reference Sequence XM 001435) were cultured in RPMI1640 medium supplemented with 25 mM HEPES, 10% fetal calf serum and 1-2 mM glutamine. The membrane preparation was performed as described above. […] On the day of the assay, the membranes were thawed, diluted in assay buffer (50 mM Tris-HCl, 5 mM CaCl2, 0.1% ascorbic acid, 10 μM pargyline, pH 7.4) to a concentration of 8 μg protein/assay and homogenized by gentle vortexing. […] Non-specific binding was defined with 1 μM methiothepin. The binding reaction was carried out for 3.5 hours at room temperature. During the incubation, the plates were shaken on a plate shaker at 100 rpm and terminated by filtration on Packard Unifilter GF/C (0.1% PEI) plates, followed by 2 wash cycles with ice-cold 50 mM Tris-HCl, 5 mM CaCl2.
Data derived from liquid scintillation counting were analyzed by iterative non-linear regression analysis with the use of the Statistical Analysis System (SAS): a program similar to “LIGAND” as described by Munson and Rodbard (Anal. Biochem. 1980, 107, 220-239). Fitting was performed according to formulae described by Feldman (Anal. Biochem. 1972, 48, 317-338). IC50 and Ki values were expressed as geometrical mean.

[3] = target: T3, human serotonin 5-HT2c receptor (Homo sapiens, UniProt P28335); experiment: Human 5-HT2C receptor radioligand binding assay (agonist site, [125I]DOI); details: 5-HT2c agonist site; transfected CHO cell membranes; 0.2 nM [125I](±)DOI
T3 construct: expressed in transfected cells; host or cells: CHO cells (membrane homogenates)
T3 sequence (P28335 33-458): T1 sequence (P28335 33-458)
Experimental: (i) Human 5-HT2C Receptor Radioligand Binding Assay
Affinity of compounds for the agonist site of the […], receptor in transfected CHO cells was determined in a radioligand binding assay essentially as described by Bryant, H. U., et al., Life Sciences (1996) 59(15), 1259-1268.

[4] = target: T4, 5HT2B receptors (Homo sapiens, UniProt P41595); experiment: Human 5-HT2B functional high throughput screening assay in CHO-K1 cells (calcium flux); type: cell-based; details: for EC50: CHO-K1 cells, calcium flux
T4 construct: expressed in transfected cells; host or cells: CHO-K1 cells
Procedure, shortened: (§1)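 Agonism is measured as intracellular calcium increase in receptor-overexpressing CHO-K1 cells, read by FLIPR at 25 °C. Responses are expressed relative to serotonin, with EC50 and Emax derived from a 4-parameter logistic curve over 6 concentrations starting at 10 μM.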

[5] = target: T1, 5HT2C receptors; experiment: Human 5-HT2C functional high throughput screening assay in CHO-K1 cells (calcium flux); type: cell-based; set-up: expressed in transfected cells; host or cells: CHO-K1 cells; details: for EC50: CHO-K1 cells, calcium flux; for Emax: 5-HT2C, maximum functional response as percentage relative to the effect of serotonin
Procedure, shortened: as §1

[6] = HEK293 membranes expressing h-5-HT6 receptor, 1 nM [3H]-LSD, geometrical mean, read-out: Ki (5-HT6 Agonist Site Radioligand Binding)
[7] = 5-HT2B agonist activity, read-out: EC50
[8] = 5-HT2B, maximum functional response as percentage relative to the effect of serotonin
[9] = 5-HT2C agonist activity, read-out: EC50

T4 sequence (P41595 whole entry): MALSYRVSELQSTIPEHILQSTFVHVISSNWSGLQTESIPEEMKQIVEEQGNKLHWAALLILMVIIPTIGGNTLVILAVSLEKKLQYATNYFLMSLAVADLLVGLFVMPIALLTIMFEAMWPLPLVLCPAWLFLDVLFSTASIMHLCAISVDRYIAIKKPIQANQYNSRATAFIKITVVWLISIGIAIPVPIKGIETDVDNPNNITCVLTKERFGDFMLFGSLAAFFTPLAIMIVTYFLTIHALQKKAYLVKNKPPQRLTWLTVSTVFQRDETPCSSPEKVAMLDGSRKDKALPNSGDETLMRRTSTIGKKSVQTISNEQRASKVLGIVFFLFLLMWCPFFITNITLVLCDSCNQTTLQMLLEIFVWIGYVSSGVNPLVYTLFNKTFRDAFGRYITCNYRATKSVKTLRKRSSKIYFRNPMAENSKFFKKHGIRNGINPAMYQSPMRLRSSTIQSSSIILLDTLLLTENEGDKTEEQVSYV
T2 sequence (P50406 whole entry): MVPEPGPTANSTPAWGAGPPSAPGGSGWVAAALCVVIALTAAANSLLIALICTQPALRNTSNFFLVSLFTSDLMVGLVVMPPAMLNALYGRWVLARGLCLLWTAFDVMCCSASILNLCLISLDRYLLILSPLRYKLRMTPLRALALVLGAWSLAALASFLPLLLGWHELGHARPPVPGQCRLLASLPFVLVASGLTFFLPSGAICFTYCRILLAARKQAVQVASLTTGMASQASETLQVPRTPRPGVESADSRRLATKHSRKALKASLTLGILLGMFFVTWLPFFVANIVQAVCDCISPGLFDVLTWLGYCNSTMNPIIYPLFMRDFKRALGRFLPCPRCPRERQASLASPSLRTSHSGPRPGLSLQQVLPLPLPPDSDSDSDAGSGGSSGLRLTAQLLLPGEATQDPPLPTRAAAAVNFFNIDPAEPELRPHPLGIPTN

Compound | Ki [2, 6] | EC50 [1] | Ki [3] | also measured
O=S(=O)(c1cccc(Cl)c1Cl)N1Cc2ccccc2[C@@H]2CN(Cc3ccccc3)C[C@H]2C1 (relative stereo) [Example 9, Trans-2-benzyl-5-(2,3-dichlorophenylsulfonyl)-1,2,3,3a,4,5,6,10b-octahydrobenzo[c]pyrrolo[3,4-e]azepine] | 17.1 nM | > 10000 nM |  | 
O=S(=O)(c1cc(Cl)ccc1Cl)N1Cc2ccccc2[C@@H]2CN(Cc3ccccc3)C[C@H]2C1 (relative stereo) [Example 10, Trans-2-benzyl-5-(2,5-dichlorophenylsulfonyl)-1,2,3,3a,4,5,6,10b-octahydrobenzo[c]pyrrolo[3,4-e]azepine] | 174 nM |  |  | 
O=S(=O)(c1cccc(F)c1)N1Cc2ccccc2[C@@H]2CNC[C@H]2C1 (relative stereo) [Example 54, Trans-5-(3-fluorophenylsulfonyl)-1,2,3,3a,4,5,6,10b-octahyrobenzo[c]pyrrolo[3,4-e]azepine] |  | 13.2 nM | 9.1 nM | Ki [2]: 121 nM
CN1C[C@H]2CN(S(=O)(=O)c3ccccc3)Cc3ccccc3[C@@H]2C1 (relative stereo) [Example 71, Trans-2-methyl-5-(phenylsulfonyl)-1,2,3,3a,4,5,6,10b-octahydrobenzo[e]pyrrolo[3,4-e]azepine] |  | 14.2 nM | 15 nM | Ki [2]: 4.42 nM
O=C1NC[C@@H]2CNC[C@H]2c2cccc(F)c21 (single isomer, unassigned) [Example 60, Trans-7-fluoro-1,2,3,3a,4,5-hexahydrobenzo[c]pyrrolo[3,4-e]azepin-6(10bH)-one] |  | 7.65 nM | 44 nM | Emax ([4]; CHO-K1): 80%; EC50 ([4]; EC50, 5-HT2B agonist activity): 900 nM; Emax ([5]; CHO-K1): 120%; EC50 ([5]; EC50, 5-HT2C agonist activity): 7 nM
O=C1NC[C@H]2CN(Cc3ccccc3)C[C@@H]2c2ccc(F)cc21 [Example 61, (3aS,10bS)-2-Benzyl-8-fluoro-1,2,3,3a,4,5-hexahydrobenzo[e]pyrrolo[3,4-e]azepin-6(10bH)-one] |  | 3.2 nM | 6.4 nM | Emax ([4]; CHO-K1): 10%; EC50 ([4]; EC50, 5-HT2B agonist activity): 200 nM; Emax ([5]; CHO-K1): > 120%; EC50 ([5]; EC50, 5-HT2C agonist activity): 5.82 nM
(3aR,10bS)-1,2,3,3a,4,5-Hexahydrobenzo[e]pyrrolo[3,4-c]azepin-6(10bH)-one [Example 47] |  | 0.575 nM | 6.1 nM | EC50 [4, 7]: 20 nM; Emax [4, 8]: 100%; EC50 [5, 9]: 0.3 nM; Emax [5]: >120%
Trans-2-benzyl-5-(2-dichlorophenylsulfonyl)-1,2,3,3a,4,5,6,10b-octahydrobenzo[c]pyrrolo[3,4-e]azepine [Example 19] | 14.1 nM |  |  | 

More lines, main results first:

Ki [2, 6] | Compound | EC50 [1] | Ki [3] | also measured
40.3 nM | O=S(=O)(c1ccccc1Br)N1Cc2ccccc2[C@@H]2CN(Cc3ccccc3)C[C@H]2C1 (relative stereo) [Example 11, Trans-2-benzyl-5-(2-bromophenylsulfonyl)-1,2,3,3a,4,5,6,10b-octahydrobenzo[c]pyrrolo[3,4-e]azepine] |  |  | 
37.5 nM | O=S(=O)(c1cccc2ccccc12)N1Cc2ccccc2[C@@H]2CN(Cc3ccccc3)C[C@H]2C1 (relative stereo) [Example 13, Trans-2-benzyl-5-(naphthalen-1-ylsulfonyl)-1,2,3,3a,4,5,6,10b-octahydrobenzo[c]pyrrolo[3,4-e]azepine] |  |  | 
490 nM | COc1ccc(OC)c(S(=O)(=O)N2Cc3ccccc3[C@@H]3CN(Cc4ccccc4)C[C@H]3C2)c1 (relative stereo) [Example 15, Trans-2-benzyl-5-(2,5-dimethoxyphenylsulfonyl)-1,2,3,3a,4,5,6,10b-octahydrobenzo[c]pyrrolo[3,4-e]azepine] |  |  | 
55.1 nM | Cc1ccc(C)c(S(=O)(=O)N2Cc3ccccc3[C@@H]3CN(Cc4ccccc4)C[C@H]3C2)c1 (relative stereo) [Example 17, Trans-2-benzyl-5-(2,5-dimethylphenylsulfonyl)-1,2,3,3a,4,5,6,10b-octahydrobenzo[c]pyrrolo[3,4-e]azepine] |  |  | 
23.1 nM | COc1cccc(S(=O)(=O)N2Cc3ccccc3[C@@H]3CN(Cc4ccccc4)C[C@H]3C2)c1 (relative stereo) [Example 18, Trans-2-benzyl-5-(3-methoxyphenylsulfonyl)-1,2,3,3a,4,5,6,10b-octahydrobenzo[c]pyrrolo[3,4-e]azepine] |  |  | 
36.1 nM | N#Cc1ccccc1S(=O)(=O)N1Cc2ccccc2[C@@H]2CN(Cc3ccccc3)C[C@H]2C1 (relative stereo) [Example 21, Trans-2-benzyl-5-(2-cyanophenylsulfonyl)-1,2,3,3a,4,5,6,10b-octahydrobenzo[c]pyrrolo[3,4-e]azepine] |  |  | 
3180 nM | CN1C[C@H]2CNC(=O)c3cc(OCc4cccc(F)c4)ccc3[C@@H]2C1 (relative stereo) [Example 217, Trans-8-(3-fluorobenzyloxy)-2-methyl-1,2,3,3a,4,5-hexahydrobenzo[c]pyrrolo[3,4-e]azepin-6(10bH)-one] |  |  | EC50 [4, 7]: > 10000 nM; Emax [4, 8]: inactive; EC50 [5, 9]: 2 nM; Emax ([5]; CHO-K1, read-out: Emax): 120%
